In patent US20180273507A1, “CRYSTAL FORMS OF A M1 RECEPTOR POSITIVE ALLOSTERIC MODULATOR” (Merck Sharp & Dohme Corp., priority 2015, published 2018):

Assay: Base catalyzed hydrolysis forced degradation, HPLC monitored
Details: basic conditions (0.1 N), 24 hours
Procedure: The experiment was conducted on a sample stored at room/ambient temperature and another sample maintained at 60° C.

Cc1ccc(Cc2cc3c(=O)n([C@H]4CCCC[C@@H]4O)cnc3c3ccccc23)cn1.O=C(O)/C=C/C(=O)O [3-[(1S,2S)-2-Hydroxycyclohexyl]-6-[(6-methyl-3-pyridinyl)methyl]benzo-[h]quinazolin-4(3H)-one (2E)-2-butenedioate]
degradation / loss under basic conditions (60° C.): 1.4% | degradation / loss under basic conditions (ambient temperature): 0.2%
